The record followed here is ChEMBL document CHEMBL4613324, “Design, Synthesis, and Evaluation of a Series of Novel Super Long-Acting DPP-4 Inhibitors for the Treatment of Type 2 Diabetes” (J Med Chem, 2020).

By inhibition in vivo is commonly meant the share of the control response that was lost under treatment. What is called IC50 is the concentration that gives 50% inhibition. Usually NOAEL stands for the highest dose or exposure tested at which no adverse effect was seen.

Each structure is given as a SMILES string. The source made the active and inactive calls. No cut-off for these calls is given here.

One data set has as its target CYP1A2 (Homo sapiens, UniProt P05177). Description: Stability assessed as recombinant human CYP1A2 mediated compound metabolism by measuring parent compound remaining after 30 mins relative to control. Type of data set: ADME. To be noted: read-out: Stability.
Data set [1] addresses Dipeptidyl peptidase 4 (Mus musculus) (UniProt P28843). The data set is described as follows: Ex-vivo inhibition of DPP4 in plasma isolated from ob/ob mouse assessed as time duration during which DPP4 inhibition rate stays above 80% treated at 30 mg/kg, po measured after 2 to 72 hrs by fluorescence based assay. Type of data set: functional, organism-based.
The next data set relates to Rhesus monkey. The data set is described as follows: Ex-vivo inhibition of DPP4 in plasma isolated from rhesus monkey treated at 10 mg/kg, ig after 12 days by fluorescence based assay relative to control. Type of data set: functional. The note with it: Macaca mulatta, po, 288 h.
For data set [2], the system named is Mus musculus. The data set is described as follows: Antidiabetic activity in ob/ob mouse assessed as reduction in decrease in HbA1c level at 3 to 10 mg/kg, po dosed once every three days for 31 day. Type of data set: functional, organism-based.
Data set [3] concerns the target Voltage-gated inwardly rectifying potassium channel KCNH2 (Homo sapiens, UniProt Q12809). Description: Inhibition of human ERG by manual whole-cell patch-clamp assay. Background: In patch-clamp work, channel activity is measured electrically.
The target of a further data set is CYP2D6 (Homo sapiens, UniProt P10635). The data set is described as follows: Stability assessed as recombinant human CYP2D6 mediated compound metabolism by measuring parent compound remaining after 30 mins relative to control. It counts as ADME. To be noted: read-out: Stability.
Sequence of CYP2D6 (P10635 whole entry): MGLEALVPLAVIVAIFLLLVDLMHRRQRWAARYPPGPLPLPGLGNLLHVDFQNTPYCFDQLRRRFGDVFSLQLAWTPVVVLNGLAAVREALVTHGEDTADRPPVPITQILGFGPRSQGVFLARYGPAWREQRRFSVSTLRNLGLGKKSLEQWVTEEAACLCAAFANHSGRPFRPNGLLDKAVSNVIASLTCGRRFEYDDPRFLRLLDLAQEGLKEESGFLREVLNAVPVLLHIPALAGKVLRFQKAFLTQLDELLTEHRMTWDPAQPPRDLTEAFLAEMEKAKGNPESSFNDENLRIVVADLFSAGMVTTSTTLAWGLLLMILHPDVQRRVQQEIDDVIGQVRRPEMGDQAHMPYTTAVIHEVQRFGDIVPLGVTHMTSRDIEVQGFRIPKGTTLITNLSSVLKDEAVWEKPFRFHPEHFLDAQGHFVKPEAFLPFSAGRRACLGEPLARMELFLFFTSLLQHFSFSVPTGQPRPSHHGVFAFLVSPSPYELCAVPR
Another data set deals with T1, Cytochrome P450 1A2 (Homo sapiens, UniProt P05177).
T1 sequence (P05177 whole entry): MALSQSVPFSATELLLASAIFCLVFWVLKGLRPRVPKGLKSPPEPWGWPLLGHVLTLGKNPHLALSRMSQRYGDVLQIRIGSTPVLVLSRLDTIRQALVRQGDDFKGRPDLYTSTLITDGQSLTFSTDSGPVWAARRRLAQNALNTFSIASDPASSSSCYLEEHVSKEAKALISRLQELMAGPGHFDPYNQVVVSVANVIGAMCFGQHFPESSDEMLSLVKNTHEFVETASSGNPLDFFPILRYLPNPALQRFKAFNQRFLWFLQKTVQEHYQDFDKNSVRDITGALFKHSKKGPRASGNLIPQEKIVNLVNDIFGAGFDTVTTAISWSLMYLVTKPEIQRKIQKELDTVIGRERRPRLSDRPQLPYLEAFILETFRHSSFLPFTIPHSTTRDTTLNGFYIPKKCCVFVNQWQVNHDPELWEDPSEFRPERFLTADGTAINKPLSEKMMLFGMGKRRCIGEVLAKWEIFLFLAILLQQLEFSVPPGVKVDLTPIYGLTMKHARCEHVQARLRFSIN
The data set is described as follows: Inhibition of recombinant human CYP1A2. Type of data set: ADME.

The target in data set [4] is T2, Cytochrome P450 2C19 (Homo sapiens, UniProt P33261). The data set is described as follows: (§1) Inhibition of recombinant human CYP2C19. It counts as ADME.
T2 sequence (P33261 whole entry): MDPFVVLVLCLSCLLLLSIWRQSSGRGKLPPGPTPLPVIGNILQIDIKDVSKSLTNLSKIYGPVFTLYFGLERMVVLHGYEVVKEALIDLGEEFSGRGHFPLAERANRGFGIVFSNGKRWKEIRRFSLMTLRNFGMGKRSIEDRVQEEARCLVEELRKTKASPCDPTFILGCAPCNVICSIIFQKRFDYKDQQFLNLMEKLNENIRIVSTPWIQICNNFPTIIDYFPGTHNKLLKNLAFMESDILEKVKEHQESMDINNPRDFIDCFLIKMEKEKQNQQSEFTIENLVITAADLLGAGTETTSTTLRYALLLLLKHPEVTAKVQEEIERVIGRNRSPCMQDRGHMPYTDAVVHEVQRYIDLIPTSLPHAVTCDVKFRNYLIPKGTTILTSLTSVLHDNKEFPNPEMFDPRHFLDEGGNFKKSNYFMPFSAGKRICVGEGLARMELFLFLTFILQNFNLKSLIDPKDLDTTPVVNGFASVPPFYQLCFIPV
A further data set deals with Cytochrome P450 2E1 (Homo sapiens, UniProt P05181). The data set is described as follows: Inhibition of recombinant human CYP2E1. It counts as ADME.
Sequence of Cytochrome P450 2E1 (P05181 whole entry): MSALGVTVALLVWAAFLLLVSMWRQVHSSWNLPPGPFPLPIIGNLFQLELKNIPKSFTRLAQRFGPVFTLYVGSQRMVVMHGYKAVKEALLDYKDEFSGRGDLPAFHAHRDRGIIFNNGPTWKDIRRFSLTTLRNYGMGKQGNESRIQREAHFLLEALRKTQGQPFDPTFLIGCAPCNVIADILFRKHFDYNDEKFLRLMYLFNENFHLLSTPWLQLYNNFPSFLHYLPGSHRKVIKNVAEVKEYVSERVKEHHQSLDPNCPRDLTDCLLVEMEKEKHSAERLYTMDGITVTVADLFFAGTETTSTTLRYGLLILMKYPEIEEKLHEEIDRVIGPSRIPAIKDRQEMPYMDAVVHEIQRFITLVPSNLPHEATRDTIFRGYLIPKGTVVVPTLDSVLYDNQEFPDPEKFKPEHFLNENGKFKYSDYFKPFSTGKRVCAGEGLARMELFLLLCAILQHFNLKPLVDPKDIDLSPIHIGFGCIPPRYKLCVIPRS
The target in data set [5] is T3, Cytochrome P450 3A4 (Homo sapiens, UniProt P08684). Description: (§2) Inhibition of recombinant human CYP3A4 using midazolam as substrate. Type of data set: ADME.
T3 sequence (P08684 whole entry): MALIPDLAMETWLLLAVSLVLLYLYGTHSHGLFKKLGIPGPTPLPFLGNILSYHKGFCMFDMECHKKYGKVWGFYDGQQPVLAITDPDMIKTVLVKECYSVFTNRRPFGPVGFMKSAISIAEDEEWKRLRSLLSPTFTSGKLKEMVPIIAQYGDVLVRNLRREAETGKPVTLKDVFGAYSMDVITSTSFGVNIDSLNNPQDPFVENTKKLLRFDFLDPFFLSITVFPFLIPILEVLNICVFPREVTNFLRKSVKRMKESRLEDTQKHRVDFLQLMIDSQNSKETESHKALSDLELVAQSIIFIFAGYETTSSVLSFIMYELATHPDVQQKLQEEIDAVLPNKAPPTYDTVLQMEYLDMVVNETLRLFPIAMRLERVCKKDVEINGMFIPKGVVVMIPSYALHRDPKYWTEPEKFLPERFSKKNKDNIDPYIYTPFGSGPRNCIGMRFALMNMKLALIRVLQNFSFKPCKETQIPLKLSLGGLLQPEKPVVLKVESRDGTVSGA
Data set [6] addresses T4, Cytochrome P450 3A5 (Homo sapiens, UniProt P20815). The data set is described as follows: Inhibition of recombinant human CYP3A5 using midazolam as substrate. It counts as ADME.
The next data set deals with T5, Cytochrome P450 2A6 (Homo sapiens, UniProt P11509).
T5 sequence (P11509 whole entry): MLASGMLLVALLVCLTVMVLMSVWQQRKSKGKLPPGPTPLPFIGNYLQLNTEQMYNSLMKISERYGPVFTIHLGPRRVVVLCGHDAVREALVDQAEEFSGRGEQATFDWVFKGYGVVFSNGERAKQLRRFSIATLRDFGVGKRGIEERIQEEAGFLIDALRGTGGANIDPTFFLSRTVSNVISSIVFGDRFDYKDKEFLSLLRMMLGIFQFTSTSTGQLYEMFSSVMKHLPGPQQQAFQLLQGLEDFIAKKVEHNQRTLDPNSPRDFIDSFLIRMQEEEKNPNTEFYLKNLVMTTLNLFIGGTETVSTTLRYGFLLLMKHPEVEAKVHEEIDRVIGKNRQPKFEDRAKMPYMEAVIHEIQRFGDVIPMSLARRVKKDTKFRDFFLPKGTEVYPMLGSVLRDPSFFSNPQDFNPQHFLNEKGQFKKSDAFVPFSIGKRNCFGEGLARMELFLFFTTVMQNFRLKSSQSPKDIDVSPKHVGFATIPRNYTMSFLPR
Description: Inhibition of recombinant human CYP2A6. It counts as ADME.

Data set [7] concerns the target T2, Cytochrome P450 2C19. Described as §1. It counts as ADME. The source holds these as a separate data set.
For data set [8], the target named is T6, Cytochrome P450 2C8 (Homo sapiens, UniProt P10632).
T6 sequence (P10632 whole entry): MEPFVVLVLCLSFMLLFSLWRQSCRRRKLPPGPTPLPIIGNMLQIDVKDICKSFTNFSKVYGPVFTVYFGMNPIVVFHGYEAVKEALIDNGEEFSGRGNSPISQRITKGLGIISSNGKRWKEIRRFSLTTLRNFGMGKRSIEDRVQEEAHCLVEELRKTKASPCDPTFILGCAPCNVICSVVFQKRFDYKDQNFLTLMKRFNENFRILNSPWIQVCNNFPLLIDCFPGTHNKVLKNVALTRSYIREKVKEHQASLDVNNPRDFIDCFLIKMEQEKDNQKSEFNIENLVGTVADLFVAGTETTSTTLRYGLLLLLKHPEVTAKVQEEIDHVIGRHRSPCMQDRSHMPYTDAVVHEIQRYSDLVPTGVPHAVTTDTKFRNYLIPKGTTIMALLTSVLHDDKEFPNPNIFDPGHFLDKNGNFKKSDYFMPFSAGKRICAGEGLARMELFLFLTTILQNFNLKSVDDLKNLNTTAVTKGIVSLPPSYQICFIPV
The data set is described as follows: (§3) Inhibition of recombinant human CYP2C8. Type of data set: ADME.

For another data set, the target named is Cytochrome P450 2D6 (Homo sapiens, UniProt P10635). The data set is described as follows: Inhibition of recombinant human CYP2D6. Type of data set: ADME.
Sequence of Cytochrome P450 2D6 (P10635 whole entry): as the sequence (P10635 whole entry) above
Data set [9] concerns the target T4, Cytochrome P450 3A5. Description: Inhibition of recombinant human CYP3A5 using testosterone as substrate. Type of data set: ADME.
The target in data set [10] is T6, Cytochrome P450 2C8. Described as §3. It counts as ADME. The source holds these as a separate data set.
The target in data set [11] is T3, Cytochrome P450 3A4. Described as §2. Type of data set: ADME. This is another data set of the same source.
A short description of data set [12]: Toxicity in Sprague-Dawley rat during single oral dose toxicology study. The note with it: in vivo.
Data set [13] is described as follows: Toxicity in male Sprague-Dawley rat during 3-month repeated dose toxicology study. To be noted: in vivo.
Data set [14] concerns Mus musculus. The data set is described as follows: Antidiabetic activity in ob/ob mouse assessed as reduction in decrease in HbA1c level at 1 mg/kg, po dosed once every three days for 31 day relative to control. Type of data set: functional. Details: scale not given: the % may be the effect or the level left.
In data set [15] the test system is Mus musculus. Description: Antidiabetic activity in ob/ob mouse assessed as reduction in decrease in HbA1c level at 10 mg/kg, po dosed once every three days for 31 day relative to control. It counts as functional. Further details: scale not given: the % may be the effect or the level left.

T4 sequence (P20815 whole entry): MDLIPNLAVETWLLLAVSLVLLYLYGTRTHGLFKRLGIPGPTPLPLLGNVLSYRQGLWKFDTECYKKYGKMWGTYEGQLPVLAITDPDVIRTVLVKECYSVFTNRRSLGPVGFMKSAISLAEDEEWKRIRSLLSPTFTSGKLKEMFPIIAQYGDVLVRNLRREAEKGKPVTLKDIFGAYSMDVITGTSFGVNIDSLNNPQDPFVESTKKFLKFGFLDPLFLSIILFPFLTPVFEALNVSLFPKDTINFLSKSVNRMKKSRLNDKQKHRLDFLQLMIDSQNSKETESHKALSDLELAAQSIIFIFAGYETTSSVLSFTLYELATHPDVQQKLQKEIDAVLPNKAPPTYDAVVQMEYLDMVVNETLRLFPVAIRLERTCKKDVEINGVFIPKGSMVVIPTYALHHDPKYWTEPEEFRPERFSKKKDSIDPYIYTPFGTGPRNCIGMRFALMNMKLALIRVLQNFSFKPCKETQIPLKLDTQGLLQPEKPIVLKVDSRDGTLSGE
Sequence of Voltage-gated inwardly rectifying potassium channel KCNH2 (Q12809 whole entry): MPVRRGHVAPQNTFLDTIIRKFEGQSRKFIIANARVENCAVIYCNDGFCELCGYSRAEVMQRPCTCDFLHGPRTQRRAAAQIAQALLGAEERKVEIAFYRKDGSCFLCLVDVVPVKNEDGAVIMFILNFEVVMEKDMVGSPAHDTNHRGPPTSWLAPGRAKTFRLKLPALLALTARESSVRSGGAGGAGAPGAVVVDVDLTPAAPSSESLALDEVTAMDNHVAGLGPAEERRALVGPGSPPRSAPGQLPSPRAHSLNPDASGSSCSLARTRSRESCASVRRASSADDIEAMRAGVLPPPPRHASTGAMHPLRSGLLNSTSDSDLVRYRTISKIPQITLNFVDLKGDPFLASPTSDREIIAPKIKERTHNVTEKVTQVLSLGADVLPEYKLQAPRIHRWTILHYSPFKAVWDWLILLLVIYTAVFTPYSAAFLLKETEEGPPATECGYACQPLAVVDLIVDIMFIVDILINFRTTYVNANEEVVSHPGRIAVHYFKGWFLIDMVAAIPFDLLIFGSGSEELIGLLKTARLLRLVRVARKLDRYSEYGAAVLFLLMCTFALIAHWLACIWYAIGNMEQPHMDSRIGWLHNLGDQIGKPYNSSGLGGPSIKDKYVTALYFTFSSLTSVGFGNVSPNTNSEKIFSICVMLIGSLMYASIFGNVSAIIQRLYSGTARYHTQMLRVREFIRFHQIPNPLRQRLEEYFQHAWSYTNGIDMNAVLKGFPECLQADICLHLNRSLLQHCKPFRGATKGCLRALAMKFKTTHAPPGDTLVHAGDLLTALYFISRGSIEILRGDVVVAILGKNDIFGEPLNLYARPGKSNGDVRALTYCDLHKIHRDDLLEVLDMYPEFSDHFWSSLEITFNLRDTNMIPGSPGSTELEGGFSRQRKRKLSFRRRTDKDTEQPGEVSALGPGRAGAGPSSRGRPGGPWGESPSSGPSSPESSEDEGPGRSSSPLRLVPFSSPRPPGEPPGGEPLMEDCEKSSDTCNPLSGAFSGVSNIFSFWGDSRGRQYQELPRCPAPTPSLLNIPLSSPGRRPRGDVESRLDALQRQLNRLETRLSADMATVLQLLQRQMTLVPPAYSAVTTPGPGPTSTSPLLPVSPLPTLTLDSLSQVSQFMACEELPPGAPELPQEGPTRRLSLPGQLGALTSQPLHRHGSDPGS
Sequence of Dipeptidyl peptidase 4 (Mus musculus) (P28843 whole entry, looked up): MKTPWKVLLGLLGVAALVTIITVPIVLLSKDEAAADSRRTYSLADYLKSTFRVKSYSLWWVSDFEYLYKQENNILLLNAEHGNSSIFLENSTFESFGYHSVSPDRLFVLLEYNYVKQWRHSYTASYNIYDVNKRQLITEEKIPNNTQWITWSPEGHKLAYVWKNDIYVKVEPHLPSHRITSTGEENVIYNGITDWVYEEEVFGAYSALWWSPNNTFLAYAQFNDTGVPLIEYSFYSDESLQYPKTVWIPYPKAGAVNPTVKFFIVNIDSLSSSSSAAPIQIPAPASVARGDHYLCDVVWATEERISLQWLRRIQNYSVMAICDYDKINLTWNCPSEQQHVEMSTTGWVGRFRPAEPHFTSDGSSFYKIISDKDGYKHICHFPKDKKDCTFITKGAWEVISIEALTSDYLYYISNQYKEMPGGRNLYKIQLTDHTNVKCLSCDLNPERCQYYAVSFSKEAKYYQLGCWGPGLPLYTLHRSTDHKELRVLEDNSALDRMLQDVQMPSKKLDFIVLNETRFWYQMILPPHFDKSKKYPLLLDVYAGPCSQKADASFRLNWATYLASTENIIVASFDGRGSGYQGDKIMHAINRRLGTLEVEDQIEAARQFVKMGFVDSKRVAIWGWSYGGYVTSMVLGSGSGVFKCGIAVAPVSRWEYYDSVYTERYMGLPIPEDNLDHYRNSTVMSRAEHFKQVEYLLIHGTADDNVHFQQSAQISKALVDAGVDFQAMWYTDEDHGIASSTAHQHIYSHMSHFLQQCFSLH

Consider `CS(=O)(=O)n1cc2c(n1)CN([C@@H]1C[C@H](N)[C@@H](c3cc(F)ccc3F)O[C@@H]1C(F)(F)F)C2` [COFROGLIPTIN], for which the remaining at 0.5 h at CYP1A2 and on CYP2D6 was above 95% in each case. In addition, the TIME in data set [1] turned out to be 72 h. This molecule also registered an inhibition in vivo at 10 mg/kg in the data set on Rhesus monkey above 80%. Also, the outcome in the data set with Mus musculus [2] was Active. Moreover, the half-maximal inhibitory concentration (IC50) is above 30 µM in data set [3]; above 100 µM at Cytochrome P450 1A2; above 100 µM on Cytochrome P450 2C19 [4]; above 100 µM on Cytochrome P450 2E1; above 100 µM at Cytochrome P450 3A4 [5]; above 100 µM at Cytochrome P450 3A5 [6]. Also, the IC50 was above 100 µM on Cytochrome P450 2A6; above 100 µM at Cytochrome P450 2C19 [7]; above 100 µM on Cytochrome P450 2C8 [8]; above 100 µM at Cytochrome P450 2D6; above 100 µM at Cytochrome P450 3A5 [9]; 76.3 µM at Cytochrome P450 2C8 [10]. For the same molecule, the IC50 on Cytochrome P450 3A4 [11] turned out to be 45.8 µM. Also, in data set [12], the MTD is 1000 mg/kg. The NOAEL at 3 month in [13] is 300 mg/kg. Besides, the Activity in the data set on Mus musculus [14] stood at 3.1%; in the data set on Mus musculus [15] it was 16.2%.
